The values below come from PubChem BioAssay AID1259407 (Chemical Carcinogenesis Research Information System (CCRIS), 2018).

The source made the active and inactive calls. No rule for the calls is given here.

In this series the test system is CCRIS mutagenicity, Ames/micronucleus/aberration tests. The experiment in a line: CCRIS mutagenicity studies.

`CCOc1ccc(NC(C)=O)cc1N`: the mutagenic call runs as follows: (Test System: AMES SALMONELLA TYPHIMURIUM, Strain/Indicator: TA98, Metabolic Activation: HAMSTER, LIVER, S-9, AROCLOR 1254, Method: STANDARD PLATE) “active; positive”; (Test System: AMES SALMONELLA TYPHIMURIUM, Strain/Indicator: TA98, Metabolic Activation: HAMSTER, LIVER, S-9, Method: STANDARD PLATE) “active; positive”; (Test System: AMES SALMONELLA TYPHIMURIUM, Strain/Indicator: TA98, Metabolic Activation: MOUSE, LIVER, S-9, AROCLOR 1254, Method: STANDARD PLATE) “active; positive”; (Test System: AMES SALMONELLA TYPHIMURIUM, Strain/Indicator: TA98, Metabolic Activation: MOUSE, LIVER, S-9, Method: STANDARD PLATE) “active; positive”; (Test System: AMES SALMONELLA TYPHIMURIUM, Strain/Indicator: TA98, Metabolic Activation: RAT, LIVER, S-9, AROCLOR 1254, Method: STANDARD PLATE) “active; positive”; (Test System: AMES SALMONELLA TYPHIMURIUM, Strain/Indicator: TA98, Metabolic Activation: RAT, LIVER, S-9, Method: STANDARD PLATE) “active; positive”. Besides, the mutagenic call (Test System: AMES SALMONELLA TYPHIMURIUM, Strain/Indicator: TA100, Metabolic Activation: HAMSTER, LIVER, S-9, AROCLOR 1254, Method: STANDARD PLATE) was “active; positive”; the mutagenic call (Test System: AMES SALMONELLA TYPHIMURIUM, Strain/Indicator: TA100, Metabolic Activation: MOUSE, LIVER, S-9, AROCLOR 1254, Method: STANDARD PLATE) is “inactive; negative”; the mutagenic call (Test System: AMES SALMONELLA TYPHIMURIUM, Strain/Indicator: TA100, Metabolic Activation: MOUSE, LIVER, S-9, Method: STANDARD PLATE) was “inactive; negative”; the mutagenic call (Test System: AMES SALMONELLA TYPHIMURIUM, Strain/Indicator: TA100, Metabolic Activation: NONE, Method: STANDARD PLATE) is “inactive; negative”; the mutagenic call (Test System: AMES SALMONELLA TYPHIMURIUM, Strain/Indicator: TA100, Metabolic Activation: RAT, LIVER, S-9, Method: STANDARD PLATE) was “inactive; negative”; the mutagenic call (Test System: AMES SALMONELLA TYPHIMURIUM, Strain/Indicator: TA1535, Metabolic Activation: HAMSTER, LIVER, S-9, AROCLOR 1254, Method: STANDARD PLATE) was “inactive; negative”. For the same compound, the mutagenic call reads like this: (Test System: AMES SALMONELLA TYPHIMURIUM, Strain/Indicator: TA1535, Metabolic Activation: HAMSTER, LIVER, S-9, Method: STANDARD PLATE) “inactive; negative”; (Test System: AMES SALMONELLA TYPHIMURIUM, Strain/Indicator: TA1535, Metabolic Activation: MOUSE, LIVER, S-9, AROCLOR 1254, Method: STANDARD PLATE) “inactive; negative”; (Test System: AMES SALMONELLA TYPHIMURIUM, Strain/Indicator: TA1535, Metabolic Activation: MOUSE, LIVER, S-9, Method: STANDARD PLATE) “inactive; negative”; (Test System: AMES SALMONELLA TYPHIMURIUM, Strain/Indicator: TA1535, Metabolic Activation: NONE, Method: STANDARD PLATE) “inactive; negative”; (Test System: AMES SALMONELLA TYPHIMURIUM, Strain/Indicator: TA1535, Metabolic Activation: RAT, LIVER, S-9, AROCLOR 1254, Method: STANDARD PLATE) “inactive; negative”; (Test System: AMES SALMONELLA TYPHIMURIUM, Strain/Indicator: TA1535, Metabolic Activation: RAT, LIVER, S-9, Method: STANDARD PLATE) “inactive; negative”. In addition, the mutagenic call is, setting by setting: (Test System: AMES SALMONELLA TYPHIMURIUM, Strain/Indicator: TA1537, Metabolic Activation: HAMSTER, LIVER, S-9, AROCLOR 1254, Method: STANDARD PLATE) “active; positive”; (Test System: AMES SALMONELLA TYPHIMURIUM, Strain/Indicator: TA1537, Metabolic Activation: HAMSTER, LIVER, S-9, Method: STANDARD PLATE) “active; positive”; (Test System: AMES SALMONELLA TYPHIMURIUM, Strain/Indicator: TA1537, Metabolic Activation: MOUSE, LIVER, S-9, AROCLOR 1254, Method: STANDARD PLATE) “active; positive”; (Test System: AMES SALMONELLA TYPHIMURIUM, Strain/Indicator: TA1537, Metabolic Activation: RAT, LIVER, S-9, AROCLOR 1254, Method: STANDARD PLATE) “active; positive”; (Test System: AMES SALMONELLA TYPHIMURIUM, Strain/Indicator: TA1538, Metabolic Activation: HAMSTER, LIVER, S-9, AROCLOR 1254, Method: STANDARD PLATE) “active; positive”; (Test System: AMES SALMONELLA TYPHIMURIUM, Strain/Indicator: TA1538, Metabolic Activation: HAMSTER, LIVER, S-9, Method: STANDARD PLATE) “active; positive”. For the same compound, the mutagenic call is, setting by setting: (Test System: AMES SALMONELLA TYPHIMURIUM, Strain/Indicator: TA1538, Metabolic Activation: MOUSE, LIVER, S-9, AROCLOR 1254, Method: STANDARD PLATE) “active; positive”; (Test System: AMES SALMONELLA TYPHIMURIUM, Strain/Indicator: TA1538, Metabolic Activation: NONE, Method: STANDARD PLATE) “inactive; negative”; (Test System: AMES SALMONELLA TYPHIMURIUM, Strain/Indicator: TA1538, Metabolic Activation: RAT, LIVER, S-9, AROCLOR 1254, Method: STANDARD PLATE) “active; positive”; (Test System: AMES SALMONELLA TYPHIMURIUM, Strain/Indicator: TA1538, Metabolic Activation: RAT, LIVER, S-9, Method: STANDARD PLATE) “active; positive”; (Test System: E. COLI, Strain/Indicator: WP2 UVRA, Metabolic Activation: HAMSTER, LIVER, S-9, AROCLOR 1254, Method: STANDARD PLATE) “inactive; negative”; (Test System: E. COLI, Strain/Indicator: WP2 UVRA, Metabolic Activation: HAMSTER, LIVER, S-9, Method: STANDARD PLATE) “inactive; negative”. The mutagenic call by setting is: (Test System: E. COLI, Strain/Indicator: WP2 UVRA, Metabolic Activation: MOUSE, LIVER, S-9, AROCLOR 1254, Method: STANDARD PLATE) “inactive; negative”; (Test System: E. COLI, Strain/Indicator: WP2 UVRA, Metabolic Activation: MOUSE, LIVER, S-9, Method: STANDARD PLATE) “inactive; negative”; (Test System: E. COLI, Strain/Indicator: WP2 UVRA, Metabolic Activation: NONE, Method: STANDARD PLATE) “inactive; negative”; (Test System: E. COLI, Strain/Indicator: WP2 UVRA, Metabolic Activation: RAT, LIVER, S-9, Method: STANDARD PLATE) “inactive; negative”.
Regarding `COc1ccc(O)c2c(=O)c3c(OC)cc4c(c3oc12)C1CCOC1O4` (configuration not stated), the mutagenic call (Test System: AMES SALMONELLA TYPHIMURIUM, Strain/Indicator: TA98, Metabolic Activation: RAT, LIVER, S-9, PHENOBARBITAL, Method: STANDARD PLATE) was “inactive; negative” and the mutagenic call (Test System: AMES SALMONELLA TYPHIMURIUM, Strain/Indicator: TA100, Metabolic Activation: RAT, LIVER, S-9, PHENOBARBITAL, Method: STANDARD PLATE) is “inactive; negative”.
As to `CC(=O)Nc1ccc2ccccc2n1`, the mutagenic call is “inactive; negative” (Test System: AMES SALMONELLA TYPHIMURIUM, Strain/Indicator: TA98, Metabolic Activation: NONE, Method: PREINCUBATION); “inactive; negative” (Test System: AMES SALMONELLA TYPHIMURIUM, Strain/Indicator: TA98, Metabolic Activation: RAT, LIVER, S-9, KANECHLOR 500, Method: PREINCUBATION); “inactive; negative” (Test System: AMES SALMONELLA TYPHIMURIUM, Strain/Indicator: TA100, Metabolic Activation: NONE, Method: PREINCUBATION); “inactive; negative” (Test System: AMES SALMONELLA TYPHIMURIUM, Strain/Indicator: TA100, Metabolic Activation: RAT, LIVER, S-9, KANECHLOR 500, Method: PREINCUBATION).
For the compound `CCOCCl`, the mutagenic call runs as follows: (Test System: E. COLI, Strain/Indicator: H/R30R, Metabolic Activation: NONE, Method: PREINCUBATION) “active; positive”; (Test System: E. COLI, Strain/Indicator: HS30R UVRA, Metabolic Activation: NONE, Method: PREINCUBATION) “active; positive”.
